Test system: Muscarinic receptor
Experiment: Intracellular calcium assay for the effect of carbachol (Fluo-4 AM, FLIPR peak fluorescence)
Assay type: cell-based
Settings: for change in signal based on the value at 10 nM: 10 nM to 1000 nM
Description: Assay is run in a standard 384-well microtiter plate with a clear bottom. Cells are seeded at a density of 30,000 cells/well, and allowed to grow overnight in standard tissue culture medium, under standard tissue culture conditions.
The next day, tissue culture supernatant is removed, and 50 μl of Calcium Reagent (Molecular Devices, Sunnyvale Calif.) is added to the wells. Plate is incubated for 1 hour at 37EC in a standard tissue culture incubator. This step loads the dye into the cells.
After the 1 hour incubation, the plate is transferred to the Molecular Device FLIPR instrument, which measures the cellular fluorescence (excitation at 488 nm /emission 515 nm filter), in one second intervals. The dye is hydrolyzed in the cell by esterases and becomes fluorescent. The instrument adds 25 microliters of carbachol (agonist for cellular calcium response) 10 seconds after the initiation of the read, and the increase in free cellular calcium resulting from carbachol stimulation is measured as an increase in cellular fluorescent signal.
The reagent: 3 μM Fluo-4 AM dye (Molecular Probes, Eugene Oreg.), 150 nM antibody in HEPES buffer (pH 7.4) containing 1% fetal bovine serum (Sigma), 0.1% Pluronic F127 (BASF) and 0.5 mM probenecid (Sigma) is added.
Instrument software identifies peak fluorescence, which is directly correlated to cellular calcium levels.

Question: Which results are given for `C[N+](C)(C)CCOC(N)=O` [Carbachol]?
Answer: change in signal based on the value at 10 nM (commercial reagent): 21%; change in signal based on the value at 10 nM (present reagents): 161%; Calcium Assay, RFU (peak fluorescence) (carbachol 10 nM, Commercial Reagents (prior art, Quencher-Ab conjugate -)): 9410 RFU; Calcium Assay, RFU (peak fluorescence) (carbachol 10 nM, DiscoveRx Reagents (present reagents, Quencher-Ab conjugate +)): 2589 RFU; Calcium Assay, RFU (peak fluorescence) (carbachol 1000 nM, Commercial Reagents (prior art, Quencher-Ab conjugate -)): 11348 RFU; Calcium Assay, RFU (peak fluorescence) (carbachol 1000 nM, DiscoveRx Reagents (present reagents, Quencher-Ab conjugate +)): 6767 RFU; difference in signal in going from 10 nM to 1000 nM (commercial reagent): 1938 RFU; change in signal in going from 10 nM to 1000 nM (present reagents): 4178 RFU

Source: patent publication US7371534B2, “Sensitive intracellular calcium assay” (Discoverx Corporation, priority 2004, dated 2008)
